We go through nine compounds from ChEMBL document CHEMBL1201862, “PubChem BioAssay data set” (2004).

Structures are written as SMILES. Activity calls are given as the source filed them.

Broadly, the AC50 is the concentration at which the activity in the assay is half-maximal. The IC50 is the concentration that gives 50% inhibition. A word on the GI50: it is the concentration at which growth is held to half of that of the control. The term CC50 denotes the concentration that lowers cell viability or growth by half.

Experiment [1] in a line: cytotoxicity in OVCAR8 ovarian cancer cells, dose response, PAX8 project, cell-based, plate reader, dry powder samples (AID 743197). Type of experiment: functional. The following applies: OVCAR-8.
A short description of experiment [2]: cytotoxicity dependent on PAX8, dose response, cell-based, plate reader, dry powder (AID 743049). Type of experiment: functional.
Experiment [3] is described as follows: PAX5 activity inhibitors, dose response, selectivity assay for PAX8 inhibitor project, cell-based, plate reader, dry powder samples (AID 743047).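 Also: HEK293 cells carrying a Pax5 driven CD19 promoter luciferase reporter; potency of inhibitors that lower reporter luminescence.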 Type of experiment: functional.
Experiment [4] in a line: PAX2 cell-based inhibition, dose response, selectivity assay for PAX8 inhibitor project, plate reader, dry powder samples (AID 743048).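 Also: HEK293 cells carrying a WT1 promoter luciferase reporter driven by expressed Pax2; potency is for inhibition of Pax2 driven reporter signal.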 Type of experiment: functional.
Experiment [5] addresses Paired box protein Pax-8 (Homo sapiens, UniProt Q06710). Description: inhibitors of PAX8-driven TPO luciferase reporter, dose response, RMG-I cells, cherry-pick (AID 687027).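 Also: luciferase reporter driven by Pax8 target thyroperoxidase promoter measured by SteadyGlo luminescence.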 Type of experiment: functional, cell-based. (In general: Reporter assays use an easily measured gene product as a stand-in for the process of interest.)
The nature of experiment [6]: cytotoxicity in COV362 ovarian cancer cells, dose response, cytotoxicity control for PAX8 inhibitor project, cell-based, plate reader, dry powder, SA12 (AID 743144). Type of experiment: functional.
The nature of experiment [7]: IGROV1 ovarian cancer cell cytotoxicity, dose response, PAX8 inhibitor project, plate reader, dry powder samples (AID 743043). Type of experiment: functional, cell-based. The settings on record: IGROV-1.
Experiment [8] is described as follows: cytotoxicity in COV434 cells, dose response, cytotoxicity control for PAX8 inhibitor project, cell-based, plate reader, dry powder, SA7 (AID 743145). Type of experiment: functional.
A short description of experiment [9]: cells.
The nature of experiment [10]: cytotoxicity toward HT-29 cells – cell-based, CellTiter-Glo luminescence, IC50, dose response (AID 1117330). Type of experiment: functional.
Experiment [11] can be described thus: Concentration-dependent survival of SW480 colon cancer line, luminescence detection with CellTiter-Glo, half-maximal inhibitory concentration (AID 1117338). Type of experiment: functional.
The nature of experiment [12]: RKO cell viability reduction, dose response, CellTiter-Glo luminescence (AID 1117322). Type of experiment: functional. (In general: Cellular ATP, detected with luciferase, serves as a proxy for viable cell number.)
Experiment [13] in a line: SNU-C1 cell viability reduction, dose response, CellTiter-Glo luminescence (AID 1117323). Type of experiment: functional, cell-based.
Experiment [14] is described as follows: CellTiter-Glo luminescent dose response of DLD-1 viability loss (AID 1117352). Type of experiment: functional.
A short description of experiment [15]: HCT116 cell viability decrease, GSK3B pretreatment – CellTiter-Glo, IC50, dose response (AID 1117339). The following applies: HCT-116. Type of experiment: functional.
Experiment [16] can be described thus: cytotoxicity toward Colo320 cells – cell-based, CellTiter-Glo luminescence, IC50, dose response (AID 1117334). Type of experiment: functional. The settings on record: COLO 320.
In experiment [17] the test system is P388. In words: cells. Type of experiment: functional. The following applies: Mus musculus.
A short description of experiment [18]: cytotoxicity toward HCT116 cells – cell-based, CellTiter-Glo luminescence, IC50, dose response (AID 1117332). Type of experiment: functional. The following applies: HCT-116.
The test system of experiment [19] is P388/ADR. In words: cells. Type of experiment: functional. The settings on record: Mus musculus.
Experiment [20] in a line: TB: CFU replicating Measured in Microorganism System Using Imaging - 7108-05_Inhibitor_Dose_DryPowder_Activity_Set2. Type of experiment: functional.
Experiment [21] can be described thus: A549 cell cytotoxicity, dose response, cytotoxicity control, plate reader, dry powder, set 6 (AID 743312). Type of experiment: functional, cell-based.
Experiment [22] can be described thus: cells. The settings on record: HEK293.
Experiment [23] can be described thus: Late stage assay provider results from the probe development effort to identify inhibitors of the Plasmodium falciparum M18 Aspartyl Aminopeptidase (M18AAP): radiolabel-based cell-based dose response assay to identify compounds that inhibit P. falciparum growth in RBCs, Set 2.. Type of experiment: functional.
Experiment [24] concerns the target Heat shock protein HSP 90-alpha (Homo sapiens, UniProt P07900). In words: Luminescence-based dose response biochemical high throughput screening assay for inhibitors of the Heat Shock Protein 90 (HSP90). [Related pubchem assays: 1831 (Summary AID.), 1846 (Confirmation screen.), 1789 (Primary screen.)].
For experiment [25], the target named is T1, Runt-related transcription factor 1/Core-binding factor subunit beta (Homo sapiens, UniProt Q01196+Q13951). In words: inhibitors of RUNX1 Runt–CBFb-SMMHC binding, biochemical, TR-FRET (AID 1438). Type of experiment: protein assay. A general note: Time-resolved FRET reads energy transfer from a long-lived donor to a nearby acceptor.
T1 sequence (Q01196 whole entry): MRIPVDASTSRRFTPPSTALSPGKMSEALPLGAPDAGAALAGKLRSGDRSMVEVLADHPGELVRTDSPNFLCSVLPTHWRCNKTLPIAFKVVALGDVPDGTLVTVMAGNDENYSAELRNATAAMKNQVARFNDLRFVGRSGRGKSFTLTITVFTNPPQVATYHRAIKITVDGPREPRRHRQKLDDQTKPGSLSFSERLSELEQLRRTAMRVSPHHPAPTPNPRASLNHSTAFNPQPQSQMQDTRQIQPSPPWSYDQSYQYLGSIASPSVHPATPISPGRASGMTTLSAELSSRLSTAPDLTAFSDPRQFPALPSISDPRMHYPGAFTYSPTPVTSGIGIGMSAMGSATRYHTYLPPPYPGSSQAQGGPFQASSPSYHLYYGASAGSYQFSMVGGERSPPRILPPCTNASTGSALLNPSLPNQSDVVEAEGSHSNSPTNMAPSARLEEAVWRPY
T1 sequence (Q13951 whole entry): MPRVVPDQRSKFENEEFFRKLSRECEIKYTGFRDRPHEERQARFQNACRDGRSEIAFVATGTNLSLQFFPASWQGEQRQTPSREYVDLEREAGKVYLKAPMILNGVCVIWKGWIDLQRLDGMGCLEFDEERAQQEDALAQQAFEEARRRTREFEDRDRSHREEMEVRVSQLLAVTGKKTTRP
Experiment [26] can be described thus: cells. The settings on record: A549.
The nature of experiment [27]: cells. The settings on record: HEK293. This is another data set of the same source.
The target in experiment [28] is T1, Runt-related transcription factor 1/Core-binding factor subunit beta. Description: inhibitors of RUNX1 Runt–CBFb-SMMHC binding, primary screen, biochemical, FRET, Cerulean-Runt, Venus-CBFb-SMMHC, uHTS (AID 1434).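 Also: partner is the CBFb-SMMHC leukemia fusion protein rather than wild-type CBFb.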 Type of experiment: protein assay.
Experiment [29] can be described thus: Vero cell cytotoxicity, dose response, cytotoxicity control for Vif-APOBEC3G degradation inhibitor project, Vero cells (AID 1117358). The following applies: Human immunodeficiency virus 1, Vero. Type of experiment: functional.

Paired box protein Pax-8, sequence (Q06710 whole entry): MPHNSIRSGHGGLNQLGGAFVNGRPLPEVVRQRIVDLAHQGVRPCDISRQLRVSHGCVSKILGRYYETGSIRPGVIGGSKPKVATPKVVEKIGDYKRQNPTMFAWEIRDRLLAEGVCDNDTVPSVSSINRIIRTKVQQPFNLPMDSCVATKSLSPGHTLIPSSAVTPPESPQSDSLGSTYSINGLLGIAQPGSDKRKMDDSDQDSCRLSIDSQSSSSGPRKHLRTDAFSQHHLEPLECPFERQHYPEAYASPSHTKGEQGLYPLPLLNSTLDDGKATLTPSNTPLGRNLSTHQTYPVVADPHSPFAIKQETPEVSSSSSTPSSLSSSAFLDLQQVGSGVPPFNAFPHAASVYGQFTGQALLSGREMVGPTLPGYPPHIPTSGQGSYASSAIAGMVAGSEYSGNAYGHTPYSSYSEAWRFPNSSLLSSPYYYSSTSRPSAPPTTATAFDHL

On to `N#C[C@@H]1[C@@H](c2ccc(C#Cc3ccccc3F)cc2)[C@H](CO)N1C(=O)C1CCCCC1`, for which the AC50 in experiment [1] is 37.5 µM (active); in [2], 28.6 µM (active); in experiment [3], 25.8 µM (active); in experiment [4], 53.3 µM (active); in experiment [5] it was 9.74 µM (active); in [6], 32.4 µM (active). In addition, the AC50 in experiment [7] was 33.4 µM (active); in [8] it was 25 µM (active).

For the compound `CCN(CC)c1ccc2cc(C(N)=O)c(=O)oc2c1`, the concentration at half-maximal activity (AC50) in experiment [9] is 0.573 µM (active).

For `CCCCCCCCCCCCCCCCOP(=O)([O-])OCC[N+](C)(C)C` [MILTEFOSINE], the 50% inhibitory concentration (IC50) in experiment [10] is 1.96 µM (active); in experiment [11], 0.478 µM (active); in [12], 0.437 µM (active); in experiment [13], 0.965 µM (active); in experiment [14] it was 1.23 µM (active); in experiment [15], 1.48 µM (active). Also, the half-inhibitory concentration (IC50) is 1.49 µM (active) in [16] and 3.39 µM (active) in [18]. For the same compound, the results for the GI50 in [17] and in [19] were 21.2 µM (inactive) and 35.4 µM (inactive), respectively.

As to `Cn1c(NC(=O)c2ccccc2F)nc2ccccc21`, the AbsAC90 in experiment [20] was 128.74 µM.

Consider `CC(C)c1ccccc1NCCn1c(=S)[nH]c2ccccc21`, for which the AC50 in [21] was 21.1 µM (active); in experiment [22], 27.5 µM (active).

As to `Oc1ccc(CCNc2c3ccccc3nc3ccccc23)cc1`, in [23], the IC50 was 0.7 µM (active).

As to `COC(=O)c1ccccc1OCCCOc1ccc(C=O)cc1OC`, in experiment [24], the concentration for half-maximal inhibition (IC50) was 0.314 µM (active).

In the case of `O=c1[nH]c(=O)c2nc(-c3ccc(Cl)cc3)cnc2[nH]1`, the IC50 in experiment [25] was > 100 µM (inactive); in [28], 0.643 µM (active). The AC50 in [26] and in experiment [27] was > 52 µM (inactive) in each case.

`Cc1ccc(S(=O)(=O)NCCCOC(=O)Nc2ccncc2)cc1`: the CC50 in [29] was > 40 µM (active).
